Measured values reported in ChEMBL document CHEMBL1201862, “PubChem BioAssay data set” (2004).
Values belong to the molecule of their own block, whether it stands above or below them. Calls of active or inactive are those of the source.

Columns and labels:
[1] = target: T1, DNA repair protein RAD52 homolog (Homo sapiens, UniProt P43351); assay type: functional, biochemical
T1 sequence (P43351 whole entry): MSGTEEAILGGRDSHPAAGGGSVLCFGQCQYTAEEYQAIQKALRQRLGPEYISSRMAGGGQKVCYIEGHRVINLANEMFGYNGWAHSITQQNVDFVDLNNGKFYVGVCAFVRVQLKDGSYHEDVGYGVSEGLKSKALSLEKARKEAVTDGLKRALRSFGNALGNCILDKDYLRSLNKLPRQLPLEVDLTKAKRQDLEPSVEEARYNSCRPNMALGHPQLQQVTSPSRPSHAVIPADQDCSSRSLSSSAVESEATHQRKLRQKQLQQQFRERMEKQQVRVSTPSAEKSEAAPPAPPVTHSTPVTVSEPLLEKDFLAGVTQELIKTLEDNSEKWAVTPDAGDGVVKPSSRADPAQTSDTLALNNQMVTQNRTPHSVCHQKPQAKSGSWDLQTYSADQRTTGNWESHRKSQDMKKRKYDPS

Paired box protein Pax-8 = Paired box protein Pax-8 (Homo sapiens, UniProt Q06710); experiment: PAX8 transcriptional activity inhibition in RMG-I – RMG-I cells, luciferase, cherry-pick, dose response (AID 687027); assay type: functional, cell-based;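 further: luciferase reporter driven by Pax8 target thyroperoxidase promoter measured by SteadyGlo luminescence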
Chain of Paired box protein Pax-8 (Q06710 whole entry): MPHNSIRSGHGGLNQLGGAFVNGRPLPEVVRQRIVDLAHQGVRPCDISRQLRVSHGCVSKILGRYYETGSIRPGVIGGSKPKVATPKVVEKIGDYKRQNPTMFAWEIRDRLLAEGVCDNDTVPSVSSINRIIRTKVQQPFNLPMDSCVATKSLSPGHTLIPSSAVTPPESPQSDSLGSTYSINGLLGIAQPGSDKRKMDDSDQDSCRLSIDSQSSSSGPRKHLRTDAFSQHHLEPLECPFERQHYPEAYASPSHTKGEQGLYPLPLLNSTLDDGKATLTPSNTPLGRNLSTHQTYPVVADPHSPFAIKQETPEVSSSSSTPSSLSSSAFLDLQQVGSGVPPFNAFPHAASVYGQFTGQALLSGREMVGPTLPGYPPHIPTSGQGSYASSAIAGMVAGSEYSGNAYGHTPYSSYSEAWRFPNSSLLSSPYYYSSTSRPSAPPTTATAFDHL

[2] = OVCAR8 cell viability loss – plate reader, dry powder samples, PAX8 project, dose response (AID 743197); assay type: functional, cell-based; conditions: OVCAR-8
BJ [3] = experiment: BJ-TERT fibroblast viability loss – cell-based, RAS-independent, luminescence, dose response (AID 1933); assay type: functional; conditions: Homo sapiens
[4] = DRD fibroblast viability loss – cell-based, non-viral oncogenic, luminescence, dose response (AID 1934); assay type: functional; conditions: Homo sapiens
BJ [5] = experiment: BJ-TERT-LT-ST fibroblast viability loss – cell-based, RAS-independent, luminescence, dose response (AID 1935); assay type: functional; conditions: Homo sapiens;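 further: BJ fibroblasts immortalized with TERT plus LT and ST oncogenes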
BJ [6] = experiment: cells; assay type: functional, cell-based; conditions: Homo sapiens
Protein Tat = target: T2, Protein Tat (Human immunodeficiency virus type 1 group M subtype B (isolate HXB2)(HIV-1), UniProt P04608); assay type: functional;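 further: tat binding to TAR RNA read out by fluorescence polarization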
T2 sequence (P04608 whole entry): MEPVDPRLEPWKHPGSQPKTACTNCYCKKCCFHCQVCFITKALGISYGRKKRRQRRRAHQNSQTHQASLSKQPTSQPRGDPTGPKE

[7] = target: T3, Heat shock factor protein 1 (Mus musculus, UniProt P38532); experiment: enhancement of HSF1-driven luciferase signal – cell-based, NIH3T3, luminescence, dose retest, confirmation (AID 435004); assay type: functional;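 further: stress induced by proteasome inhibitor MG132 added 30 min after compound; luciferase reporter driven by HSF1 response element in NIH3T3 cells; actives raise luminescence as potentiators of the MG132 stress response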
T3 sequence (P38532 whole entry): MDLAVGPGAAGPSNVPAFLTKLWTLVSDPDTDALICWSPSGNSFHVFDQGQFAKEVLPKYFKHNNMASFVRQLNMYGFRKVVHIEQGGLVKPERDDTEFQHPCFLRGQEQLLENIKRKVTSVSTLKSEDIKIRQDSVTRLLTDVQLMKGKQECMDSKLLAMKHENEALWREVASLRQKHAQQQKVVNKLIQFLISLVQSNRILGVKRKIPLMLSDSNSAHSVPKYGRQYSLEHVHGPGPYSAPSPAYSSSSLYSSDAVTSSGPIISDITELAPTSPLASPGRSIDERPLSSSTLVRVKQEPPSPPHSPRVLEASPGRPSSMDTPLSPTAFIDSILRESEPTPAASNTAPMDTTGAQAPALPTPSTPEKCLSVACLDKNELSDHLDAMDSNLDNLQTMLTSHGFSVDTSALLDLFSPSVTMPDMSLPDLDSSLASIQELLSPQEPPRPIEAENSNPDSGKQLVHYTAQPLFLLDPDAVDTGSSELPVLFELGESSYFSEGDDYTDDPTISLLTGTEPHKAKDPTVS

[8] = target: T4, Rac GTPase-activating protein 1 (Homo sapiens, UniProt Q9H0H5); experiment: blockers of MgcRacGAP-driven Rac1 GTP hydrolysis – biochemical, ADP Hunter fluorescence, primary and confirmatory, confirmation (AID 624330); assay type: functional
T4 sequence (Q9H0H5 whole entry): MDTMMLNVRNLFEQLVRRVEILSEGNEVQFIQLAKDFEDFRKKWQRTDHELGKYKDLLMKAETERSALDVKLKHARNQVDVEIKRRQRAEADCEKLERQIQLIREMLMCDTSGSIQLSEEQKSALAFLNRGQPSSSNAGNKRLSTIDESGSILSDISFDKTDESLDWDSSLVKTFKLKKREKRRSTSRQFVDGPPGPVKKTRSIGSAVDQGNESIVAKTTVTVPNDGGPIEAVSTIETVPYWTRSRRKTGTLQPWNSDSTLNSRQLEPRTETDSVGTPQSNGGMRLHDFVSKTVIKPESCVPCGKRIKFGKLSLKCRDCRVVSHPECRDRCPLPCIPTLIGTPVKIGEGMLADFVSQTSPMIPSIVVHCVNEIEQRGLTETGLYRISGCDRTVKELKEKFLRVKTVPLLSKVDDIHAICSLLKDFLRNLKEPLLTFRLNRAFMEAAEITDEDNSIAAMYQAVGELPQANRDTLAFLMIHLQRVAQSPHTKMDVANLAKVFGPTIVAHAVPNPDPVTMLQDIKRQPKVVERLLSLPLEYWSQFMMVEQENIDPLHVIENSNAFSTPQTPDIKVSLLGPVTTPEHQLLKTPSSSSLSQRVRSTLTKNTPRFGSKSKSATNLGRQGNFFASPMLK

[9] = NIH-3T3 fibroblast cytotoxicity, dose response, cytotoxicity control, cell-based, fluorescence, Alamar Blue, secondary assay (AID 2327); assay type: functional;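 further: NIH-3T3 mouse fibroblasts cultured with fluconazole at 8 µg/mL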
[10] = viability loss in HeLa cells – cytotoxicity control for MgcRacGAP inhibitor project, dose response (AID 624300); assay type: functional
[11] = fluconazole-exposed Candida albicans growth modulators – fluorescence, retest, confirmation (AID 2467); assay type: functional, cell-based
cells [12] = assay type: functional, cell-based
[13] = target: T5, Carboxy-terminal domain RNA polymerase II polypeptide A small phosphatase 1 (Homo sapiens, UniProt Q9GZU7); experiment: CTDSP1 inhibitors, concentration-response, biochemical, absorbance readout, ultra-high-throughput screen actives (AID 540297); assay type: functional
T5 sequence (Q9GZU7 whole entry): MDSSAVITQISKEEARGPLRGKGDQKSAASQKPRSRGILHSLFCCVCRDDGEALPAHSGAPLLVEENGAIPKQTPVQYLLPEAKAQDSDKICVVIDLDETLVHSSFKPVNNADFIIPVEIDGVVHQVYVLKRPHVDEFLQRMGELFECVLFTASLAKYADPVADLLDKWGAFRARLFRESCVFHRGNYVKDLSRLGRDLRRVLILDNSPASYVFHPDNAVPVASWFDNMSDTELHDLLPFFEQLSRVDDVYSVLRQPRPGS

[14] = target: T6, RNA-binding protein pos-1 (Caenorhabditis elegans, UniProt G5EF15); experiment: disruptors of C. elegans POS-1 RNA interaction – biochemical, fluorescence polarization, dose response (AID 1964);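 further: purified POS-1 fused to maltose binding protein made in E. coli; potency of compounds blocking POS-1 binding to fluorescent RNA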
T6 sequence (G5EF15 whole entry): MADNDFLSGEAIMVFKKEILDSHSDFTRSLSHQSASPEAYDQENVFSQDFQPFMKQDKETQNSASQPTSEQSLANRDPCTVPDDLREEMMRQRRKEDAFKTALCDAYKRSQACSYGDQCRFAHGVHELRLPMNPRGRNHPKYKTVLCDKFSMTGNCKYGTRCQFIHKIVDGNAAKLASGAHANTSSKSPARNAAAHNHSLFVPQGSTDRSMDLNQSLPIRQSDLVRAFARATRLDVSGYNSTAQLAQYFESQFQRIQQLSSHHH

cells [15] = assay type: functional, cell-based; remark: listed apart in the source
[16] = target: T7, Zinc finger protein mex-5 (Caenorhabditis elegans, UniProt Q9XUB2); experiment: potency of MEX-5 RNA-binding blockers – biochemical, C. elegans, fluorescence polarization, dose response (AID 1960)
T7 sequence (Q9XUB2 whole entry): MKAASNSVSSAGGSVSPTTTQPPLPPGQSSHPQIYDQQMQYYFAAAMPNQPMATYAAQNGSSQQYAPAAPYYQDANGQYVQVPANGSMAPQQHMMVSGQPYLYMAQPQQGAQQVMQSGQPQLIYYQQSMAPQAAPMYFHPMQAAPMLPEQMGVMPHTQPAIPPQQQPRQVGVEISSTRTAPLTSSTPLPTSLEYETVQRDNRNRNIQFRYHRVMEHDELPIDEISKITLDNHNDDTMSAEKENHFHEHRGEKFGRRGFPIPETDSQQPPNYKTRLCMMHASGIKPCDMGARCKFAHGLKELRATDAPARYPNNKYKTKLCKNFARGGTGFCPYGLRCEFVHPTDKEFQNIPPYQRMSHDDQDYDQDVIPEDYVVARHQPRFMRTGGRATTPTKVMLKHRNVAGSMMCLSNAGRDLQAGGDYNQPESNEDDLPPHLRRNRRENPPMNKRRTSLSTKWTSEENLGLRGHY

[17] = target: T8, Histone-lysine N-methyltransferase NSD2 (Homo sapiens, UniProt O96028); assay type: biochemical
T8 sequence (O96028 whole entry): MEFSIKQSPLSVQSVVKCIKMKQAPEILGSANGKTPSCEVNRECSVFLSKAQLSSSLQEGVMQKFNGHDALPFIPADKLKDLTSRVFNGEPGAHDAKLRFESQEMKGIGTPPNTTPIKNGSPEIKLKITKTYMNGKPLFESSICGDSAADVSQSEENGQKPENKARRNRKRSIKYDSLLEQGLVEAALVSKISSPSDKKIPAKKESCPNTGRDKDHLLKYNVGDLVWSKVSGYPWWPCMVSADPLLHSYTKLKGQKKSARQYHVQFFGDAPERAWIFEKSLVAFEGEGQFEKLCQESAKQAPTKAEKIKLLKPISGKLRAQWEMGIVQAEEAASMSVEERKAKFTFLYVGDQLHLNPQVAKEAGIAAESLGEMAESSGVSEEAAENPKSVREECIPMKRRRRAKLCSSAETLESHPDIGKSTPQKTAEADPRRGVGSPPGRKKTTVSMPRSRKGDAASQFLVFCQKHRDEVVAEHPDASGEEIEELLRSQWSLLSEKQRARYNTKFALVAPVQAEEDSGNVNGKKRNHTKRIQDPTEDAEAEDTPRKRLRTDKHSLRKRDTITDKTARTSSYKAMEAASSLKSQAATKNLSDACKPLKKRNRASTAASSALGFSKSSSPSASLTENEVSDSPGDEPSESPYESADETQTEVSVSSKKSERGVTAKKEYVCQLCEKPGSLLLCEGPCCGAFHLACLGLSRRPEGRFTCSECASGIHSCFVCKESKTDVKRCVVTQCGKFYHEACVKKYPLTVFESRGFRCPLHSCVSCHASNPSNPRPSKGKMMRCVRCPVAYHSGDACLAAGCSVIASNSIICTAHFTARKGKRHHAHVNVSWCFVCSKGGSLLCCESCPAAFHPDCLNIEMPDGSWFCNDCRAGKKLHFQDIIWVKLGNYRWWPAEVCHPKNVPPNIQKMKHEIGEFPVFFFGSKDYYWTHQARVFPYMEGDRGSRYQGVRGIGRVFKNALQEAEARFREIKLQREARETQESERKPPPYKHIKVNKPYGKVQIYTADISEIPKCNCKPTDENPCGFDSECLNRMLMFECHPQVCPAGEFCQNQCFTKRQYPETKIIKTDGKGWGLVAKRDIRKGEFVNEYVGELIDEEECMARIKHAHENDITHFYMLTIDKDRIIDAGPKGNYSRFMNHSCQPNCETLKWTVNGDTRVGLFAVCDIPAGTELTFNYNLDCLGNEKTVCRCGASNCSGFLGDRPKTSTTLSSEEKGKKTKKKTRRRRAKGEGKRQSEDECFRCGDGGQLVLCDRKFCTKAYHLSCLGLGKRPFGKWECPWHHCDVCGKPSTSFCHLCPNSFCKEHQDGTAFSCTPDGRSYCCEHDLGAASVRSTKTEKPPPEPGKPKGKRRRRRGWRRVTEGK

SMILES: C[C@H]1CCCCO[C@H](CN(C)C(=O)Nc2ccc(C(F)(F)F)cc2)[C@@H](C)CN([C@@H](C)CO)C(=O)c2cc(NS(=O)(=O)c3ccc(F)cc3)ccc2O1
AC50 (Paired box protein Pax-8): 4.63 µM (active)
AC50 [2]: > 70 µM (inactive)

SMILES: COc1ccc(N2CCc3c(C)nc4c(OC)cccc4c32)cc1
EC50 (BJ [3]): 3.48 µM (inconclusive)
AC50 [1]: 12.3 µM (active)
EC50 [4]: 2.68 µM (active)
EC50 (BJ [5]): 1.26 µM (inconclusive)
EC50 (BJ [6]): 20 µM (inconclusive)

SMILES: C[C@@H]1CN([C@@H](C)CO)C(=O)Cc2cc(NC(=O)Nc3ccc(C(F)(F)F)cc3)ccc2O[C@H]1CN(C)C(=O)Nc1ccc(C(F)(F)F)cc1
AC50 (Paired box protein Pax-8): 8.87 µM (active)
AC50 [2]: > 70 µM (inactive)

SMILES: O=C(C[n+]1ccc2ccccc2c1)c1ccc2ccc3ccccc3c2c1
AC50 [1]: 4.04 µM (active)

SMILES: CCCCn1c(SCC(=O)c2ccc(O)c(O)c2)nc2ccsc2c1=O
EC50 [7]: 31.7 µM (active)
IC50 [8]: 49.7 µM (active)
EC50 [9]: 12.9 µM (active)
CC50 [10]: 100 µM (active)
EC50 [11]: > 38 µM (not active)

SMILES: O=C(O)c1cccc(-n2cccc2/C=C2/SC(=O)N(CC(=O)N3CCCC3)C2=O)c1
EC50 (cells [12]): > 350 µM (not active)
IC50 [13]: 5.53 µM (active)
EC50 [14]: > 300 µM (not active)
EC50 (cells [15]): > 350 µM (not active)
EC50 [16]: > 300 µM (not active)
AC50 [17]: > 20 µM (inactive)

Further lines, with some results ahead:

AC50 [1]: 15.7 µM (active)
SMILES: CCn1cc(C(=O)NN)c(=O)c2cc(F)c(N3CCN(C)CC3)cc21

IC50 (Protein Tat): > 100 µM (active)
SMILES: CCc1ccc2nc(N3CCN(C)CC3)c(C#N)cc2c1

AC50 [1]: 11.6 µM (active)
SMILES: CN1CCN(CC(=O)Nc2nc(-c3c[nH]c4ccccc34)cs2)CC1

IC50 [8]: 182 µM (active)
SMILES: O=C(c1ccccc1F)N1CCN(Cc2ccccc2F)CC1
CC50 [10]: 100 µM (active)

IC50 [8]: 43.3 µM (active)
SMILES: Oc1ccc(/C=N/n2c(-c3ccco3)cs/c2=N\c2cccnc2)c(O)c1
CC50 [10]: 100 µM (active)

AC50 [1]: 15.6 µM (active)
SMILES: CCOC(=O)c1c(CNc2ccncc2)n(C)c2cc(Br)c(O)cc12

IC50 (Protein Tat): > 100 µM (active)
SMILES: O=C1[C@@H]2C(Cc3ccc(O)cc3)NC3(C(=O)Nc4ccc(F)cc43)[C@@H]2C(=O)N1c1ccc(F)cc1 (stereo not given in full)
